Test results published in patent US20060199736A1, “Environmentally benign bioactive formulation” (priority 2002, published 2006).

Columns and labels:
[1] = cited from earlier work
[2] = pH study of dilute solutions of VertecBio solvents with dichlorvos; type: physicochemical; conditions: solvent containing 1% dichlorvos
Protocol: In this example, the pH of a dilute solution of an organophosphate pesticide is tracked over time. The dilution into water is done without any surfactants.
The biosolvents were diluted in water at one, two, and three percent concentrations. The solvents, before being diluted, contained 1% dichlorvos. The VertecBio Citrus™ and Gold™ blends were made of 80% ethyl lactate and 20% d-limonene and methyl soyate respectively.
(§1) The initial pH of the water was approximately 7.80 pH units.

[3] = pH study of dilute solutions of VertecBio solvents in water; type: physicochemical
Protocol: The Citrus and Gold blends were made of 80% Ethyl lactate and 20% d-limonene and methyl soyate respectively. The pH was measured at various intervals and was recorded.
as §1

[4] = pH study of dilute solutions of VertecBio solvents with neem oil containing azadirachtin; type: physicochemical; conditions: solvent mixed with 3% (w/w) neem oil
Protocol: The biosolvents were mixed with 3% (w/w) neem oil containing the natural pesticide azadirachtin. These were diluted in water at one, two, and three percent concentrations. The Citrus™ and Gold™ blends were made of 80% ethyl lactate and 20% d-limonene and methyl soyate, respectively, as described above. […] The initial pH of the water was 7.80 pH units.

Structure (SMILES): CCCCNC(=O)n1c(NC(=O)OC)nc2ccccc21 [Benlate, benomyl]
- ½ Life at pH 5.0 [1]: 30 hr
- ½ Life at pH 7.0 [1]: 1 hr

Structure (SMILES): O=C1C2CC=CCC2C(=O)N1SC(Cl)(Cl)Cl (stereo not drawn) [Captan, captan]
- ½ Life at pH 5.0 [1]: 10 hr
- ½ Life at pH 7.0 [1]: 3 hr
- ½ Life at pH 8.0 [1]: 10 min
- ½ Life at pH 9.0 [1]: 2 min

Structure (SMILES): CNC(=O)CSP(=S)(OC)OC [Cygon, dimethoate]
- ½ Life at pH 6.0 [1]: 12 hr
- ½ Life at pH 9.0 [1]: 48 min

Structure (SMILES): CCOP(=S)(OCC)Oc1nc(Cl)c(Cl)cc1Cl [Dursban, chlorpyrofos]
- ½ Life at pH 5.0 [1]: 63 days
- ½ Life at pH 7.0 [1]: 35 days
- ½ Life at pH 8.0 [1]: 1.5 days

Structure (SMILES): CCOC(=O)C(C)O (stereo not drawn) [Ethyl Lactate, ethyl lactate]
- pH of dilute solution ([2]; 1% in water, 4 hours): 7.3
- pH of dilute solution ([2]; 1% in water, 24 hours): 7.15
- pH of dilute solution ([2]; 1% in water, 48 hours): 7.08
- pH of dilute solution ([2]; 1% in water, 72 hours): 6.89
- pH of dilute solution ([2]; 1% in water, Initial): 7.72
- pH of dilute solution ([2]; 2% in water, 24 hours): 6.92
- pH of dilute solution ([2]; 2% in water, 48 hours): 6.55
- pH of dilute solution ([2]; 2% in water, 72 hours): 6.04
- pH of dilute solution ([2]; 2% in water, Initial): 7.5
- pH of dilute solution ([2]; 3% in water, 4 hours): 6.97
- pH of dilute solution ([2]; 3% in water, 24 hours): 6.6
- pH of dilute solution ([2]; 3% in water, 48 hours): 6.28
- pH of dilute solution ([2]; 3% in water, 72 hours): 5.45
- pH of dilute solution ([2]; 3% in water, Initial): 7.51
- pH of dilute solution ([3]; 1% in water, 2 hours): 7.25
- pH of dilute solution ([3]; 1% in water, 4 hours): 7.10
- pH of dilute solution ([3]; 1% in water, 6 hours): 6.95
- pH of dilute solution ([3]; 1% in water, 8 hours): 7.11
- pH of dilute solution ([3]; 1% in water, 24 hours): 6.78
- pH of dilute solution ([3]; 1% in water, 48 hours): 6.75
- pH of dilute solution ([3]; 1% in water, 72 hours): 6.56
- pH of dilute solution ([3]; 1% in water, Initial): 7.75
- pH of dilute solution ([3]; 2% in water, 2 hours): 7.14
- pH of dilute solution ([3]; 2% in water, 4 hours): 7.00
- pH of dilute solution ([3]; 2% in water, 6 hours): 6.90
- pH of dilute solution ([3]; 2% in water, 8 hours): 6.90
- pH of dilute solution ([3]; 2% in water, 24 hours): 6.56
- pH of dilute solution ([3]; 2% in water, 48 hours): 6.43
- pH of dilute solution ([3]; 2% in water, 72 hours): 5.88
- pH of dilute solution ([3]; 2% in water, Initial): 7.65
- pH of dilute solution ([3]; 3% in water, 2 hours): 7.01
- pH of dilute solution ([3]; 3% in water, 4 hours): 6.90
- pH of dilute solution ([3]; 3% in water, 6 hours): 6.78
- pH of dilute solution ([3]; 3% in water, 8 hours): 6.79
- pH of dilute solution ([3]; 3% in water, 24 hours): 6.47
- pH of dilute solution ([3]; 3% in water, 48 hours): 5.93
- pH of dilute solution ([3]; 3% in water, 72 hours): 5.47
- pH of dilute solution ([3]; 3% in water, Initial): 7.54
- pH of dilute solution ([4]; 1% in water, 4 hours): 7.43
- pH of dilute solution ([4]; 1% in water, 24 hours): 6.77
- pH of dilute solution ([4]; 1% in water, 48 hours): 6.94
- pH of dilute solution ([4]; 1% in water, 72 hours): 6.39
- pH of dilute solution ([4]; 1% in water, Initial): 7.59
- pH of dilute solution ([4]; 2% in water, 48 hours): 6.74
- pH of dilute solution ([4]; 2% in water, 72 hours): 6.02
- pH of dilute solution ([4]; 2% in water, Initial): 7.41
- pH of dilute solution ([4]; 3% in water, 24 hours): 6.68
- pH of dilute solution ([4]; 3% in water, 48 hours): 6.61
- pH of dilute solution ([4]; 3% in water, 72 hours): 5.78
- pH of dilute solution ([4]; 3% in water, Initial): 7.31

Structure (SMILES): COP(=S)(OC)SCn1nnc2ccccc2c1=O [Guthion, azin-phos methyl]
- ½ Life at pH 5.0 [1]: 60 hr
- ½ Life at pH 9.0 [1]: 12 hr

Structure (SMILES): COP(=S)(OC)SCN1C(=O)c2ccccc2C1=O [Imidan, phosmet]
- ½ Life at pH 5.0 [1]: 7 days
- ½ Life at pH 7.0 [1]: 12 hr
- ½ Life at pH 8.0 [1]: 4 hr

Structure (SMILES): CCOC(=O)CC(SP(=S)(OC)OC)C(=O)OCC (stereo not drawn) [Malathion, malathion]
- ½ Life at pH 6.0 [1]: 8 days
- ½ Life at pH 7.0 [1]: 3 days
- ½ Life at pH 8.0 [1]: 19 hr
- ½ Life at pH 9.0 [1]: 5 hr

Structure (SMILES): CNC(=O)Oc1cccc2ccccc12 [Sevin, carbaryl]
- ½ Life at pH 7.0 [1]: 10 days
- ½ Life at pH 9.0 [1]: 24 hr
